# Target: T1, human EP4 receptors (Homo sapiens, UniProt P35408)
# T1 construct: expressed in transfected cells
# Experiment: cAMP assay in human EP4 transfectant
# Assay type: cell-based
# Details: HEK293 cells expressing human EP4 receptors, 1 nM PGE2, 0.2 mM IBMX, 37° C. for 10 min
# Procedure: cAMP Assay in Human EP4 Transfectant
# HEK293 cells expressing human EP4 receptors (hEP4 cells) are maintained in DMEM containing 10% FBS and 500 μg/ml geneticin. For harvesting hEP4 cells, culture medium is aspirated and cells in 75 cm^2 flask are washed with 10 ml of phosphate buffered saline (PBS). Another 10 ml of PBS is added to the cells and incubated for 20 min at room temperature. Human EP4 cells are harvested by pipetting and centrifuged at 300×g for 4 min. Cells are resuspended in DMEM without neutral red at a density of 7×10^5 cells/ml containing 0.2 mM IBMX (PDE inhibitor), 1 nM PGE2 and test compounds in PCR-tubes, and incubated at 37° C. for 10 min. The reaction is stopped by heating at 100° C. for 10 min with thermal cycler. Concentration of cAMP in reaction mixtures is determined with SPA cAMP Kit (Amersham) or cAMP Screen™ (Applied Biosystems) according to the manufacture's instruction. • Reference: Eur. J. Pharmacol. 340 (1997) 227-241. In Vivo Assays Carrageenan Induced Mechanical Hyperalgesia in Rats: […]
# T1 sequence (P35408 whole entry): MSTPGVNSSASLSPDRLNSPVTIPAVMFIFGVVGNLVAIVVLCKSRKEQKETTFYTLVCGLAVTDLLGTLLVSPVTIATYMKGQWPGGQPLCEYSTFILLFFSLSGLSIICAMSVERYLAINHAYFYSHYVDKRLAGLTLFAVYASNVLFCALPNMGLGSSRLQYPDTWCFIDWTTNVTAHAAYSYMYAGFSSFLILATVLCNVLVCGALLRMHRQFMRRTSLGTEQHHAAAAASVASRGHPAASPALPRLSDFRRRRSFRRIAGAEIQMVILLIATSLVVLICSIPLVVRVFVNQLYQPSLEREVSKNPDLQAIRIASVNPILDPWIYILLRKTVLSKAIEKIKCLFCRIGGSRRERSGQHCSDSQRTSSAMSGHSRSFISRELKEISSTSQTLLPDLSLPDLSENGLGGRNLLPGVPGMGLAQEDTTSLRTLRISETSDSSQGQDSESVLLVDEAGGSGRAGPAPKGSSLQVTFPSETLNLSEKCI
row,SMILES,IC50 [nM]
1,"CNC(=O)c1cccc(OCc2ccc(Cl)cc2C(=O)N[C@@H](C)c2ccc(C(=O)O)cc2)c1 [EXAMPLE 19, 4-((1S)-1-{[5-chloro-2-({3-[(methylamino)carbonyl]phenoxy}methyl)benzoyl]amino}ethyl)benzoic Acid]",220
2,"C[C@H](NC(=O)c1cc(Cl)ccc1COc1cccc(F)c1F)c1ccc(C(=O)O)cc1 [EXAMPLE 7, 4-[(1S)-1-({5-chloro-2-[(2,3-difluorophenoxy)methyl]benzoyl}amino)ethyl]benzoic Acid]",15
3,"C[C@H](NC(=O)c1cc(F)cnc1COc1ccc(Cl)cc1)c1ccc(C(=O)O)cc1 [EXAMPLE 21, 4-{(1S)-1-[({2-[(4-chlorophenoxy)methyl]-5-fluoropyridin-3-yl}carbonyl)amino]ethyl}benzoic Acid]",48
4,"C[C@H](NC(=O)c1cc(Cl)ccc1COCC(C)(C)C)c1ccc(C(=O)O)cc1 [EXAMPLE 24, 4-{(1S)-1-({5-chloro-2-[(2,2-dimethylpropoxy)methyl]benzoyl}amino)ethyl}benzoic Acid]",120
5,"CC(C)COCc1ccc(Cl)cc1C(=O)N[C@@H](C)c1ccc(C(=O)O)cc1 [EXAMPLE 17, 4-((1S)-1-{[5-chloro-2-(isobutoxymethyl)benzoyl]amino}ethyl)benzoic Acid]",180
6,"C[C@H](NC(=O)c1cc(Cl)ccc1COc1cncc(F)c1)c1ccc(C(=O)O)cc1 [EXAMPLE 14, 4-{(1S)-1-[(5-chloro-2-{[(5-fluoropyridin-3-yl)oxy]methyl}benzoyl)amino]ethyl}benzoic Acid]",380
7,"C[C@H](NC(=O)c1cc(Cl)ccc1CN(C)c1ccc(F)cn1)c1ccc(C(=O)O)cc1 [EXAMPLE 25, 4-{(1S)-1-[(5-chloro-2-{[(5-fuluoropyridin-2-yl)(methyl)amino]methyl}benzoyl)amino]ethyl}benzoic Acid]",230
8,"C[C@H](NC(=O)c1cc(Cl)ccc1CN(C)c1ccc(Cl)cn1)c1ccc(C(=O)O)cc1 [EXAMPLE 22, 4-{(1S)-1-[(5-chloro-2-{[(5-chloropyridin-2-yl)(methyl)amino]methyl}benzoyl)amino]ethyl}benzoic Acid]",68
9,"C[C@H](NC(=O)c1cc(Cl)ccc1COc1ccccc1Cl)c1ccc(C(=O)O)cc1 [EXAMPLE 1, 4-[(1S)-1-({5-chloro-2-[(2-chlorophenoxy)methyl]benzoyl}amino)ethyl]benzoic Acid]",19
10,"C[C@H](NC(=O)c1cc(Cl)ccc1COc1cncc(Cl)c1)c1ccc(C(=O)O)cc1 [EXAMPLE 15, 4-{(1S)-1-[(5-chloro-2-{[(5-chloropyridin-3-yl)oxy]methyl}benzoyl)amino]ethyl}benzoic Acid]",160
11,"C[C@H](NC(=O)c1cc(Cl)ccc1COc1cccc(Cl)c1)c1ccc(C(=O)O)cc1 [EXAMPLE 2, 4-[(1S)-1-({5-chloro-2-[(3-chlorophenoxy)methyl]benzoyl}amino)ethyl]benzoic Acid]",11
12,"C[C@H](NC(=O)c1cc(Cl)cnc1COc1cccc(F)c1)c1ccc(C(=O)O)cc1 [EXAMPLE 26, 4-{(1S)-1-[({5-chloro-2-[(3-fluorophenoxy)methyl]pyridin-3-yl}carbonyl)amino]ethyl}benzoic Acid]",56
13,"C[C@H](NC(=O)c1cc(Cl)cnc1COc1cccc(Cl)c1)c1ccc(C(=O)O)cc1 [EXAMPLE 20, 4-{(1S)-1-[({5-chloro-2-[(3-chlorophenoxy)methyl]pyridin-3-yl}carbonyl)amino]ethyl}benzoic Acid]",17
14,"C[C@H](NC(=O)c1cc(Cl)ccc1COCC1CCCCC1)c1ccc(C(=O)O)cc1 [EXAMPLE 23, 4-{(1S)-1-({5-chloro-2-[(cyclohexylmethoxy)methyl]benzoyl}amino)ethyl}benzoic Acid]",10
15,"C[C@H](NC(=O)c1cc(Cl)ccc1COc1cc(F)cc(F)c1)c1ccc(C(=O)O)cc1 [EXAMPLE 12, 4-[(1S)-1-({5-chloro-2-[(3,5-difluorophenoxy)methyl]benzoyl}amino)ethyl]benzoic Acid]",22
16,"C[C@H](NC(=O)c1cc(Cl)ccc1COc1cccc(F)c1)c1ccc(C(=O)O)cc1 [EXAMPLE 5, 4-[(1S)-1-({5-chloro-2-[(3-fluorophenoxy)methyl]benzoyl}amino)ethyl]benzoic Acid]",23
17,"C[C@H](NC(=O)c1cc(Cl)ccc1COc1ccc(F)cc1)c1ccc(C(=O)O)cc1 [EXAMPLE 4, 4-[(1S)-1-({5-chloro-2-[(4-fluorophenoxy)methyl]benzoyl}amino)ethyl]benzoic Acid]",15
18,"C[C@H](NC(=O)c1cc(Cl)ccc1COc1ccc(F)c(F)c1)c1ccc(C(=O)O)cc1 [EXAMPLE 11, 4-[(1S)-1-({5-chloro-2-[(3,4-difluorophenoxy)methyl]benzoyl}amino)ethyl]benzoic Acid]",16
19,"C[C@H](NC(=O)c1cc(Cl)ccc1COc1ccc(F)cc1F)c1ccc(C(=O)O)cc1 [EXAMPLE 8, 4-[(1S)-1-({5-chloro-2-[(2,4-difluorophenoxy)methyl]benzoyl}amino)ethyl]benzoic Acid]",17
20,"C[C@H](NC(=O)c1cc(Cl)ccc1COc1cc(F)ccc1F)c1ccc(C(=O)O)cc1 [EXAMPLE 9, 4-[(1S)-1-({5-chloro-2-[(2,5-difluorophenoxy)methyl]benzoyl}amino)ethyl]benzoic Acid]",41
21,"C[C@H](NC(=O)c1cc(Cl)ccc1COc1ccc(Cl)cc1)c1ccc(C(=O)O)cc1 [EXAMPLE 3, 4-[(1S)-1-({5-chloro-2-[(4-chlorophenoxy)methyl]benzoyl}amino)ethyl]benzoic Acid]",7.5
22,"C[C@H](NC(=O)c1cc(Cl)cnc1COc1ccc(Cl)cc1)c1ccc(C(=O)O)cc1 [EXAMPLE 18, 4-{(1S)-1-[({5-chloro-2-[(4-chlorophenoxy)methyl]pyridin-3-yl}carbonyl)amino]ethyl}benzoic Acid]",22
23,"C[C@H](NC(=O)c1cc(Cl)ccc1COc1c(F)cccc1F)c1ccc(C(=O)O)cc1 [EXAMPLE 10, 4-[(1S)-1-({5-chloro-2-[(2,6-difluorophenoxy)methyl]benzoyl}amino)ethyl]benzoic Acid]",24
24,"Cc1ccc(OCc2ccc(Cl)cc2C(=O)N[C@@H](C)c2ccc(C(=O)O)cc2)cc1 [EXAMPLE 13, 4-[(1S)-1-({5-chloro-2-[(4-methylphenoxy)methyl]benzoyl}amino)ethyl]benzoic Acid]",8.3
25,"C[C@H](NC(=O)c1cc(Cl)cnc1COc1ccc(F)cc1)c1ccc(C(=O)O)cc1 [EXAMPLE 27, 4-{(1S)-1-[({5-chloro-2-[(4-fluorophenoxy)methyl]pyridin-3-yl}carbonyl)amino]ethyl}benzoic Acid]",91
26,"C[C@H](NC(=O)c1cc(Cl)ccc1COC1CCCC1)c1ccc(C(=O)O)cc1 [EXAMPLE 16, 4-[(1S)-1-({5-chloro-2-[(cyclopentyloxy)methyl]benzoyl}amino)ethyl]benzoic Acid]",470
27,"C[C@H](NC(=O)c1cc(Cl)ccc1COc1ccccc1F)c1ccc(C(=O)O)cc1 [EXAMPLE 6, 4-[(1S)-1-({5-chloro-2-[(2-fluorophenoxy)methyl]benzoyl}amino)ethyl]benzoic Acid]",30

# Reference: patent publication US7534914B2, “Substituted methyl aryl or heteroaryl amide compounds” (ReQualia Pharma Inc., priority 2004, dated 2009)
